Source: PubChem BioAssay AID1963977 (Molecular Pharmacology Branch, DTP, NCI, 2024)
pIC50: −log10 of the molar value. Blank lines part the entries; values can stand above or below the compound they belong to.

Tested on: 624824-186-R-J3-PDC multicell spheroids, viability
Assay: Anticancer human tumor 624824-186-R-J3-PDC patient-derived colon adenocarcinoma cell line growth inhibition [PI3K]
Details: for pIC50: curve of first compound; for viability, T/C: stronger effect = lower value
Summary of the method: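 Viability of mixed-cell spheroids was determined after exposure to pairwise combinations, one partner being inavolisib, alpelisib, duvelisib or copanlisib. Highest tested concentration matched clinical Cmax where known and 10 microM where not, descending in half-log steps.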

[1] = second compound 0.0316 µM, first compound 0.0316 µM
[2] = second compound 0.0316 µM, first compound 0.1 µM
[3] = second compound 0.1 µM, first compound 0.0316 µM
[4] = second compound 0.1 µM, first compound 0.1 µM
[5] = second compound 0.316 µM, first compound 0.0316 µM
[6] = second compound 0.316 µM, first compound 0.1 µM
[7] = second compound 1 µM, first compound 0.0316 µM
[8] = second compound 1 µM, first compound 0.1 µM
[9] = second compound 3.16 µM, first compound 0.0316 µM
[10] = second compound 3.16 µM, first compound 0.1 µM
[11] = second compound 10 µM, first compound 0.0316 µM
[12] = second compound 10 µM, first compound 0.1 µM
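Note: spheroids exposed to agents for seven days before luminescence read.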
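Throughout, for viability, T/C: luminescent signal used as a stand-in for spheroid viability; percent viability relative to DMSO vehicle control wells taken as 100%.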

pIC50 (second compound 0.0316 µM): < 7.00 | pIC50 (second compound 0.1 µM): 7.01 | pIC50 (second compound 0.316 µM): 7.10 | pIC50 (second compound 1 µM): 7.19 | pIC50 (second compound 3.16 µM): 7.54 | pIC50 (second compound 10 µM): 7.81
SMILES: CC(C)n1nc(-c2ccc3oc(N)nc3c2)c2c(N)ncnc21 + Cc1nc(NC(=O)N2CCCC2C(N)=O)sc1-c1ccnc(C(C)(C)C(F)(F)F)c1
viability, T/C (second compound 0.0316 µM, first compound 0.000316 µM): 110% | viability, T/C (second compound 0.0316 µM, first compound 0.001 µM): 104% | viability, T/C (second compound 0.0316 µM, first compound 0.00316 µM): 112% | viability, T/C (second compound 0.0316 µM, first compound 0.01 µM): 99.1% | viability, T/C [1]: 91.3% | viability, T/C [2]: 53.3% | viability, T/C (second compound 0.1 µM, first compound 0.000316 µM): 103% | viability, T/C (second compound 0.1 µM, first compound 0.001 µM): 101% | viability, T/C (second compound 0.1 µM, first compound 0.00316 µM): 101% | viability, T/C (second compound 0.1 µM, first compound 0.01 µM): 110% | viability, T/C [3]: 97.8% | viability, T/C [4]: 48.9% | viability, T/C (second compound 0.316 µM, first compound 0.000316 µM): 108% | viability, T/C (second compound 0.316 µM, first compound 0.001 µM): 101% | viability, T/C (second compound 0.316 µM, first compound 0.00316 µM): 105% | viability, T/C (second compound 0.316 µM, first compound 0.01 µM): 100% | viability, T/C [5]: 89.2% | viability, T/C [6]: 40% | viability, T/C (second compound 1 µM, first compound 0.000316 µM): 104% | viability, T/C (second compound 1 µM, first compound 0.001 µM): 105% | viability, T/C (second compound 1 µM, first compound 0.00316 µM): 97.2% | viability, T/C (second compound 1 µM, first compound 0.01 µM): 91.3% | viability, T/C [7]: 77% | viability, T/C [8]: 34% | viability, T/C (second compound 3.16 µM, first compound 0.000316 µM): 87.3% | viability, T/C (second compound 3.16 µM, first compound 0.001 µM): 94.6% | viability, T/C (second compound 3.16 µM, first compound 0.00316 µM): 89.5% | viability, T/C (second compound 3.16 µM, first compound 0.01 µM): 72.9% | viability, T/C [9]: 48.5% | viability, T/C [10]: 30.4% | viability, T/C (second compound 10 µM, first compound 0.000316 µM): 67.5% | viability, T/C (second compound 10 µM, first compound 0.001 µM): 68.4% | viability, T/C (second compound 10 µM, first compound 0.00316 µM): 68.1% | viability, T/C (second compound 10 µM, first compound 0.01 µM): 52.8% | viability, T/C [11]: 42% | viability, T/C [12]: 25.7%

pIC50 (second compound 0.0316 µM): 5.01 | pIC50 (second compound 0.1 µM): 5.03 | pIC50 (second compound 0.316 µM): < 5.00 | pIC50 (second compound 1 µM): < 5.00 | pIC50 (second compound 3.16 µM): 5.07 | pIC50 (second compound 10 µM): 5.28
SMILES: CC1(C)CCC(CN2CCN(c3ccc(C(=O)NS(=O)(=O)c4ccc(NCC5CCOCC5)c([N+](=O)[O-])c4)c(Oc4cnc5[nH]ccc5c4)c3)CC2)=C(c2ccc(Cl)cc2)C1 + Cc1nc(NC(=O)N2CCCC2C(N)=O)sc1-c1ccnc(C(C)(C)C(F)(F)F)c1
viability, T/C [1]: 106% | viability, T/C [2]: 99.3% | viability, T/C (second compound 0.0316 µM, first compound 0.316 µM): 106% | viability, T/C (second compound 0.0316 µM, first compound 1 µM): 101% | viability, T/C (second compound 0.0316 µM, first compound 3.16 µM): 119% | viability, T/C (second compound 0.0316 µM, first compound 10 µM): 48.7% | viability, T/C [3]: 103% | viability, T/C [4]: 99.9% | viability, T/C (second compound 0.1 µM, first compound 0.316 µM): 104% | viability, T/C (second compound 0.1 µM, first compound 1 µM): 107% | viability, T/C (second compound 0.1 µM, first compound 3.16 µM): 118% | viability, T/C (second compound 0.1 µM, first compound 10 µM): 46.9% | viability, T/C [5]: 119% | viability, T/C [6]: 104% | viability, T/C (second compound 0.316 µM, first compound 0.316 µM): 107% | viability, T/C (second compound 0.316 µM, first compound 1 µM): 103% | viability, T/C (second compound 0.316 µM, first compound 3.16 µM): 116% | viability, T/C (second compound 0.316 µM, first compound 10 µM): 54.6% | viability, T/C [7]: 96.2% | viability, T/C [8]: 93.8% | viability, T/C (second compound 1 µM, first compound 0.316 µM): 106% | viability, T/C (second compound 1 µM, first compound 1 µM): 96.9% | viability, T/C (second compound 1 µM, first compound 3.16 µM): 104% | viability, T/C (second compound 1 µM, first compound 10 µM): 53.2% | viability, T/C [9]: 82.5% | viability, T/C [10]: 91.4% | viability, T/C (second compound 3.16 µM, first compound 0.316 µM): 90.8% | viability, T/C (second compound 3.16 µM, first compound 1 µM): 81.8% | viability, T/C (second compound 3.16 µM, first compound 3.16 µM): 91.3% | viability, T/C (second compound 3.16 µM, first compound 10 µM): 44.3% | viability, T/C [11]: 69.9% | viability, T/C [12]: 73.8% | viability, T/C (second compound 10 µM, first compound 0.316 µM): 70.1% | viability, T/C (second compound 10 µM, first compound 1 µM): 69.7% | viability, T/C (second compound 10 µM, first compound 3.16 µM): 63.7% | viability, T/C (second compound 10 µM, first compound 10 µM): 33.3%
